# Laboratory results taken from US20210038577A1, “THIOREDOXIN REDUCTASE INHIBITORS FOR USE IN THE TREATMENT OF CANCER” (Cinda Pharma AB, priority 2018, published 2021).
# Tests used:
# Trx in MDA-MB-231 cells = assay: Intracellular Trx levels by ELISA in MDA-MB-231 tumor cells; format: cell-based, human
# Description: The human mammary carcinoma cell line MDA-MB-231 was obtained from the American Type Culture Collection (ATCC; Manassas, Va.) and cultured in Leibovitz's L-15 medium (Thermo Fisher Scientific, USA) supplemented with 10% (v/v) heat-inactivated fetal bovine serum (Thermo Fisher Scientific, USA), 10 mM HERBS (Sigma), 25 mM sodium bicarbonate (Sigma), 1× Glutamax (Sigma), 100 IU/mL penicillin and 100 μg/ml streptomycin (Sigma) in a 5% CO2 atmosphere at 37° C. Briefly, cells were seeded at 7500 cells/well in 96-well plates. After 24 h, the cells were treated either with different concentrations of test compounds or DMSO (0.5%; vehicle control) respectively and further incubated at 37° C. in a CO2 incubator. Culture supernatants were collected at different time points, like, immediately after cell plating (−24 h), 0 h (at the time of compound addition), and 1 h, 6 h, 12 h, 24 h, 48 h, 72 h and 96 h following compound addition. Subsequently, cells were lysed from corresponding wells with 0.1% Triton X-100 and the lysates were collected. Trx levels were measured in both the culture supernatants and cell lysates by ELISA using TXN (Human) ELISA Kit [Abnova; Cat no: KA0535] following manufacturer instruction. A standard curve was prepared using different concentrations of the Trx standard (provided in the kit) with the help of GraphPad Prism software (version 5.0; La Jolla, Calif., USA). Trx concentrations for the unknown samples were calculated from the standard curve. The data were expressed as the means of three replicates.
# GR from baker's yeast = biological target: T1, GR from baker's yeast (Saccharomyces cerevisiae, UniProt P41921); assay: Glutathione reductase (GR) activity assay; format: biochemical; details: Molar concentration
# T1 sequence (P41921 17-483 limits assumed): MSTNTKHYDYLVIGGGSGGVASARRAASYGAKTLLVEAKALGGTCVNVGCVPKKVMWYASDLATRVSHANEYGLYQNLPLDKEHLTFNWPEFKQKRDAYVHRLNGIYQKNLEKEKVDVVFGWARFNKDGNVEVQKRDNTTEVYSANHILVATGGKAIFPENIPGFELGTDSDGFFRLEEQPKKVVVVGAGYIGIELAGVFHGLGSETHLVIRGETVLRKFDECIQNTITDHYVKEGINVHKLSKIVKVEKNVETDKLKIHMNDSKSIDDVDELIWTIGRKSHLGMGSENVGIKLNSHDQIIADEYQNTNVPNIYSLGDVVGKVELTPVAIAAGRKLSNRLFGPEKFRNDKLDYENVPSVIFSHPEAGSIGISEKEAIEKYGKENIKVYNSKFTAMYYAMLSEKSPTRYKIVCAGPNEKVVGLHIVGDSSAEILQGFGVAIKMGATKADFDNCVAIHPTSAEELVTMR
# Description: GR activity was determined incubating compounds at various concentrations with GR from baker's yeast and 250 μM NADPH for 15 minutes, whereupon 10 mM oxidized glutathione (GSSG) was added to each well and NADPH consumption was followed at OD340. Activity was determined following the consumption of NADPH over time and normalized to DMSO only (Vehicle) and GR lacking (blank) controls.
# [1] = system: MDA-MB-231 (a breast cancer cell line); assay: MTT cell viability assay, MDA-MB-231; format: cell-based, human; details: 72 hrs
# Description: (§1) MDA-MB-453 (ATCC HTB-131) cells were grown in media with sodium pyruvate. MDA-MB-231 cells (ATCC HTB-26) were grown in DMEM media or L-15 supplemented with Glutamax (1×). U87-MG (ATCC HTB-14) and MDA-MB-468 (ATCC HTB-132) cells were cultured in DMEM supplemented with Glutamax (1×). NB-4 (DSMZ ACC-207) cells were cultured in RPMI 1640.
# (§2) Breast cancer and glioblastoma cell lines were plated 4000 cells/well in 96-well plates in the presence of 10% FBS media. The following day cells were treated with various concentrations of the example compounds (0.1% DMSO final) and incubated for 72 hrs. After the incubation an MTT assay was performed to access cell viability. Percent of viability was determined using DMSO vehicle and no cell (blank) controls.
# [2] = system: MDA-MB-468 (a breast cancer cell line); assay: MTT cell viability assay, MDA-MB-468; format: cell-based; details: 72 hrs
# Description: as §1, §2
# MDA-MB-231 cells = assay: Alamar-Blue cell viability assay; format: cell-based, human; details: 72 hrs
# Description: MDA-MB-231 cells were plated 2000 cells/well in 96-well black optical plates in the presence of 10% FBS media containing 25 nM selenite. The following day cells were treated with various concentrations of compounds (0.1% DMSO final) and incubated for 72 hrs. After the incubation Alamar Blue reagent was added to each well and incubated for additional 3 hrs. Fluorescence was read ex:530 nm/em:590 nm, and percent of viability was determined using DMSO vehicle and no cell (blank) controls.
# recombinant TrxR [3] = biological target: T2, recombinant TrxR (Rattus norvegicus, UniProt O89049)
# T2 sequence (O89049 1-499): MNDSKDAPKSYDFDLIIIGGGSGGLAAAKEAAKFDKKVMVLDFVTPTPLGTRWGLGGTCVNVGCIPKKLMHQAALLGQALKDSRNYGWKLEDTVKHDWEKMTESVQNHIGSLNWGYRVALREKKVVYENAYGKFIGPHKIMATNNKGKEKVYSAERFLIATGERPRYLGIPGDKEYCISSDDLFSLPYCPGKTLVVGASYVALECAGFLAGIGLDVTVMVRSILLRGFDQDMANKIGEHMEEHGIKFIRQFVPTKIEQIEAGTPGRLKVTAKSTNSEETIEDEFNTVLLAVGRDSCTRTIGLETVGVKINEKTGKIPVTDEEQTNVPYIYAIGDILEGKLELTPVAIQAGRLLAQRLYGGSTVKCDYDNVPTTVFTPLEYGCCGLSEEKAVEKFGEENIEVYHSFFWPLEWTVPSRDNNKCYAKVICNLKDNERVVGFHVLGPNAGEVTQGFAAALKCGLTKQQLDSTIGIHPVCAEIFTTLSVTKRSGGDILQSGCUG
# Description: (§3) SecTRAP forming capabilities of compounds with TrxR was determined using the Juglone Assay. Compounds were incubated in the presence of recombinant TrxR and 250 μM NADPH for 15 minutes at concentrations fully inhibiting enzyme activity in the DTNB assay. 100 μM juglone was then added to each well and NADPH consumption was followed at OD340 to determine sustained reductive capacity at the N-terminus of TrxR (SecTRAP Activity). Activity was determined following the consumption of NADPH over time and normalized to DMSO only (Vehicle) and TrxR lacking (blank) controls.
# (§4) Aliquots were used in a DTNB assay to determine inhibition of enzyme activity. […] Incubation samples were then added to a reaction buffer containing 250 μM NADPH and 100 μM juglone, whereupon NADPH consumption was followed at OD340 to determine sustained SecTRAP activity.
# (§5) Higher % values for juglone activity (juglone reduction activity) in this assay are indicative of stronger prooxidant activity.
# [4] = system: U-87 MG (a glioblastoma cell line); assay: MTT cell viability assay, U-87 MG; format: cell-based; details: 72 hrs
# Description: as §1, §2
# [5] = system: NB-4 (a leukaemia cell line); assay: MTT cell viability assay, NB-4; format: cell-based; details: 72 hrs
# Description: as §1, §2
# recombinant TrxR [6] = biological target: T2, recombinant TrxR; assay: Sec-independent SecTRAP activity (Juglone assay); details: compound at the concentration that achieves 100% inhibition of TrxR in the DTNB assay
# Description: as §3, §4, §5
SMILES,intracellular levels of Trx compared with control cells (Trx in MDA-MB-231 cells; at 1 μM and 10 μM),time after which intracellular Trx is reduced compared with control cells (Trx in MDA-MB-231 cells; at 1 μM and 10 μM) [h],IC50 (GR from baker's yeast) [µM],IC50 [5] [µM],time after which intracellular Trx is reduced compared with control cells (Trx in MDA-MB-231 cells; at 1 μM) [h],time after which intracellular Trx is reduced compared with control cells (Trx in MDA-MB-231 cells; at 10 μM) [h],Juglone Act (% @ 100% DTNB inhibition) (recombinant TrxR [6]) [%],other results
"CC[S+]([O-])c1nc(OC)ccc1[N+](=O)[O-] (stereo not drawn) [OT-1131, 2-(ethylsulfinyl)-6-methoxy-3-nitropyridine]",reduced,≤ 6,,,,,,
"CC(=O)OC[C@H]1O[C@@H]([S-])[C@H](OC(C)=O)[C@@H](OC(C)=O)[C@@H]1OC(C)=O.CCP(CC)CC.[Au+] [Auranofin, reference compound]",,,> 30,,,,,IC50 [1]: 1.66 µM; IC50 [2]: 0.31 µM; IC50 (MDA-MB-231 cells): 1.4 µM; classification as SecTRAP forming agent (recombinant TrxR [3]): SecTRAP-forming agent; IC50 [4]: 1.72 µM
"O=C1C=C[C@H]2[C@@H]3C(=O)N(Cc4ccccc4)C(=O)[C@@H]3[C@@H]1N2Cc1ccccc1 (relative stereo) [OT-2056, exo-4,11-Dibenzyl-4,11-diazatricyclo[5.3.1.0^2,6]undec-9-ene-3,5,8-trione]",reduced,,> 30,0.42,24,6,107.692,
"COc1ccc([N+](=O)[O-])c(S(=O)(=O)c2ccccn2)n1 [OT-1012, 6-Methoxy-3-nitro-2-(pyridin-2-ylsulfonyl)pyridine]",,,> 30,,,,89.8,"intracellular levels of Trx compared with control cells (Trx in MDA-MB-231 cells; at all doses): reduced; time after which intracellular Trx is reduced compared with control cells (Trx in MDA-MB-231 cells; at all doses): 12 h; IC50 ([4]; Homo sapiens, U-87 MG): 8.2 µM"
"COC(=O)CCS(=O)(=O)c1nc(OC)ccc1[N+](=O)[O-] [OT-1113, methyl 3-((6-methoxy-3-nitropyridin-2-yl)sulfonyl)propanoate]",reduced,,> 30,1.17,48,65,91.16,
"COc1ccc([N+](=O)[O-])c(S(=O)(=O)Cc2ccccc2)n1 [OT-1011, 2-Benzylsulfonyl-6-methoxy-3-nitropyridine]",reduced,6 to 12,> 30,1.21,,,83.67,
